By IC50 is commonly meant the midpoint of a concentration-inhibition curve.

A value given as a limit tells only on which side of the number the result lay.

The assay has as its system MCF7. Kind of assay: Antimitotic activity in human MCF7 cells assessed as mitotic arrest after 16 to 20 hrs by ELISA method. Type of assay: functional, cell-based.
`CO[C@]12C=C[C@](C)(O1)[C@@H](OC(=O)/C=C/c1cn(C)cn1)C[C@H]1C(C)=CC[C@H](C(C)C)[C@H]1/C=C\2CO[C@@H]1OC[C@@H](O)[C@@H](O)[C@@H]1OC(C)=O` [ELEUTHEROBIN]: the 50% inhibitory concentration (IC50) stood at 100 nM.

Regarding `CO[C@]12C=C[C@](C)(O1)[C@@H](OC(=O)CCc1cn(C)cn1)C[C@H]1C(C)=CC[C@H](C(C)C)[C@H]1/C=C\2CO[C@@H]1OC[C@@H](O)[C@@H](O)[C@@H]1OC(C)=O`, the IC50 turned out to be 20000 nM. With `CC(=O)O[C@@H]1[C@H](OC/C2=C/[C@@H]3[C@@H](C(C)C)CC=C(C)[C@@H]3C[C@H](OC(=O)/C=C/c3cn(C)cn3)[C@]3(C)C=C[C@@]2(OCCO)O3)OC[C@@H](O)[C@H]1O` the figure was 20 nM.

In the case of `CC(=O)O[C@@H]1[C@H](OC/C2=C/[C@@H]3[C@@H](C(C)C)CC=C(C)[C@@H]3C[C@H](OC(=O)/C=C/c3cn(C)cn3)[C@]3(C)C=C[C@@]2(O)O3)OC[C@@H](O)[C@H]1O` [DESMETHYLELEUTHEROBIN], the half-inhibitory concentration (IC50) was 20 nM. To `CO[C@]12C=C[C@](C)(O1)[C@@H](OC(=O)/C=C/c1cn(C)cn1)C[C@@H]1[C@H](/C=C\2CO[C@@H]2OC[C@@H](O)[C@@H](O)[C@@H]2OC(C)=O)[C@@H](C(C)C)C[C@H]2O[C@@]12C` belongs 300 nM. To `CO[C@]12C=C[C@](C)(O1)[C@@H](OC(=O)/C=C/c1cn(C)cn1)C[C@@H]1[C@H](/C=C\2CO[C@@H]2OC[C@@H](O)[C@@H](O)[C@@H]2OC(C)=O)[C@@H](C(C)C)C[C@@H]2O[C@@]21C` belongs 30 nM; to `CC(=O)O[C@@H]1[C@H](OC/C2=C/[C@@H]3[C@@H](C(C)C)CC=C(C)[C@@H]3C[C@H](OC(=O)/C=C/c3cn(C)cn3)[C@]3(C)C=C[C@@]2(OCC(C)(C)CO)O3)OC[C@@H](O)[C@H]1O`, 80 nM. With `CO[C@]12C=C[C@](C)(O1)[C@@H](OC(=O)/C=C/c1cn(C)cn1)C[C@@H]1[C@H](/C=C\2CO[C@@H]2OC[C@@H](O)[C@@H](O)[C@@H]2OC(C)=O)[C@@H](C(C)C)C=C[C@@]1(C)O` [CARIBAEOSIDE] the figure was 20000 nM; with `CCO[C@]12C=C[C@](C)(O1)[C@@H](OC(=O)/C=C/c1cn(C)cn1)C[C@H]1C(CO)=CC[C@H](C(C)C)[C@H]1/C=C\2CO[C@@H]1OC[C@@H](O)[C@@H](O)[C@@H]1OC(C)=O`, 20 nM; with `CO[C@]12CC[C@](C)(O1)[C@@H](OC(=O)CCc1cn(C)cn1)C[C@@H]1[C@H](/C=C\2CO[C@@H]2OC[C@@H](O)[C@@H](O)[C@@H]2OC(C)=O)[C@@H](C(C)C)CC[C@@H]1C`, above 10000 nM. For `CO[C@]12C=C[C@](C)(O1)[C@@H](OC(=O)/C=C/c1cn(C)cn1)C[C@H]1C(C)=CC[C@H](C(C)C)[C@H]1/C=C\2CO[C@@H]1OC[C@@H](O)[C@@H](OC(C)=O)[C@@H]1O` [ISOELEUTHEROBIN A], the IC50 amounted to 50 nM. As for `CO[C@]12CC[C@](C)(O1)[C@@H](OC(=O)/C=C/c1cn(C)cn1)C[C@@H]1[C@H](/C=C\2CO[C@@H]2OC[C@@H](O)[C@@H](O)[C@@H]2OC(C)=O)[C@@H](C(C)C)CC[C@@H]1C` [TETRAHYDROELEUTHEROBIN], the IC50 came to 200 nM.
